We go through 22 compounds from patent US5037739A, “N-acetylmannosamine dehydrogenase, process for its production, method for quantitatively analyzing N-acetylmannosamine or sialic acid, and kit for the quantitative analysis” (Noda Institute for Scientific Research, priority 1986, dated 1991).

Like-named read-outs stand apart in the source and are kept apart here. Where only a bound is given, the exact number is not on record here.

The target in data set [1] is T1, N-AMDH (Flavobacterium sp., UniProt P22441).
T1 construct: N-AMDH was accumulated in the bacterial cells; endogenous in cells; host or cells: Flavobacterium sp; No. 141-8 (natural producer isolated from soil); enzyme purified from the disrupted bacterial cells
As to the kind of experiment: N-AMDH enzymatic activity in solutions containing metallic ions and inhibitors. The class given is biochemical, Flavobacterium sp. No. 141-8. To be noted: for remaining activity at 2000 µM: read-out: Residual activity (%). The method, then: The table presented above illustrates the enzymatic activity of N-AMDH measured in solutions containing various metallic ions and inhibitors at a concentration of 2 mM. There is known no substance making a particular contribution to its activation and stabilization.
(§1) To 1.8 ml of 0.05M tris-hydrochloric acid buffer (pH 8.2) is added 0.1 ml of 60 mM NAD solution. After keeping the mixture at 37° C. for 10 minutes, 10 microliters of enzyme solution is added, and then 0.1 ml of 0.3M N-AM is added. By homogenizing the mixture, the reaction is started. The reaction mixture is immediately transferred into a light absorbance measurement cell (light path 1 cm) kept at 37° C., and absorbance is measured over a period of 5 minutes (if necessary, over a longer period of time) at intervals of one minute at a wavelength of 340 nm. A quantity of enzyme capable of forming 1 micromole of NADH in one minute is taken as one unit.

The target of data set [2] is T1, N-AMDH. As to the kind of experiment: Action and substrate-specificity of N-AMDH (substrates and electron acceptors). To be noted: for Action of N-AMDH upon the sugar as substrate: in the presence of NAD. The data set is classed as biochemical, Flavobacterium sp. No. 141-8. The method, then:
In the presence of water, N-acetylmannosaminolactone is spontaneously hydrolyzed to form N-acetylmannosaminic acid. Accordingly, the reaction is substantially irreversible.
as §1

The subject of data set [3] is Flavobacterium sp. No. 141-8. The data set can be described thus: Growth resistance of the producing strain (penicillin, sodium chloride). The class given is cell-based. The text has this: (1) Penicillin resistance: Growth even at 100 units/ml.
(2) Sodium chloride resistance: No growth above 2%.

A short description of data set [4]: pH stability and heat stability (inactivation conditions) of N-AMDH. The class given is physicochemical, Flavobacterium sp. No. 141-8. Here is the method: The buffer solutions used there are potassium phosphate buffer, tris-hydrochloric acid buffer and glycine-sodium hydroxide buffer.
At temperatures exceeding 45° C., it rapidly loses its activity. When heat treated at 45° C. for 10 minutes, it is stable at a pH of 8.5-9.5, while it is particularly instable at a pH value of 7 or below.

Data set [5] is described as follows: Acrylamide gel isoelectric focusing of N-AMDH. The class given is physicochemical, Flavobacterium sp. No. 141-8. The text has this: As measured by acrylamide gel isoelectric focusing, its isoelectric point is 4.9.
Where [6] appears, read: N-AMDH activity with metallic ion or inhibitor at 2 mM, None = 100.
The mark [7] stands for this setting: heat treated at 45° C. for 10 minutes.

T1 sequence (P22441 2-271 limits assumed): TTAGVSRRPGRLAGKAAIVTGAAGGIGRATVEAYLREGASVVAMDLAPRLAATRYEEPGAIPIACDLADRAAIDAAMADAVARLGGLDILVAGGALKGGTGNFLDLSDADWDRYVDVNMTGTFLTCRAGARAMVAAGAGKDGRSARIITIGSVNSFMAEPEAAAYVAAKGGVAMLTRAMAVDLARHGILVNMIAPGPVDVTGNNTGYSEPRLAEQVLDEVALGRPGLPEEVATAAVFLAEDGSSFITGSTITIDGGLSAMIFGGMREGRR

As to `NC(=O)CI` [Iodoacetamide], the remaining activity at 2000 µM in data set [1] (setting [6]) was found to be 87%. As to `CC(=O)N[C@H]1C(O)O[C@H](CO)[C@@H](O)[C@@H]1O` (stereo partly shown) [N-acetylglucosamine], the “Action of N-AMDH upon the sugar as substrate” value (“Action” for short) in data set [2] was “hardly acts or does not act at all”.

On to `O=C(O)c1cc[c]([Hg][Cl])cc1` [PCMB], for which the “Residual activity (%)” value in data set [1] (setting [6]) was 95%.

For `O=C(O)CN(CCN(CC(=O)O)CC(=O)O)CC(=O)O` [EDTA], the remaining activity at 2000 µM in data set [1] was found to be 89%. Take `c1cnc2c(c1)ccc1cccnc12` [o-Phenanthroline]: in data set [1] (setting [6]), the remaining activity at 2000 µM amounted to 87%.

Turning to `O=S(=O)([O-])[O-].[Zn+2]` [ZnSO4], the “Residual activity (%)” value in data set [1] (setting [6]) is listed as 71%.

For `O=S(=O)([O-])[O-].[Ni+2]` [NiSO4], the “Residual activity (%)” value in data set [1] (setting [6]) amounted to 69%.

Take `Nc1ncnc2c1ncn2[C@@H]1O[C@H](COP(=O)(O)O)[C@@H](O)[C@H]1O` [5'-AMP]: the remaining activity at 2000 µM in data set [1] (setting [6]) was found to be 76%. On to `CC(=O)N[C@@H]1C(O)O[C@H](CO)[C@@H](O)[C@@H]1O` (stereo partly shown) [N-AM, N-acetylmannosamine], for which, in data set [2], the “Action” value was “oxidizes N-AM into N-acetylmannoaminolactone”. Regarding `CC1(C)S[C@@H]2[C@H](NC(=O)Cc3ccccc3)C(=O)N2[C@H]1C(=O)O` [Penicillin], the “Penicillin resistance: concentration at which the strain still grows” value in data set [3] is at least 100 units/ml. Take `[Cl][Hg][Cl]` [HgCl2]: in data set [1] (setting [6]), the “Residual activity (%)” value turned out to be 6%. On to `Oc1cccc2cccnc12` [8-Hydroxyquinoline], for which, in data set [1], the “Residual activity (%)” value turned out to be 95%. Consider `NC(=O)c1ccc[n+]([C@@H]2O[C@H](COP(=O)([O-])OP(=O)(O)OC[C@H]3O[C@@H](n4cnc5c(N)ncnc54)[C@H](OP(=O)(O)O)[C@@H]3O)[C@@H](O)[C@H]2O)c1` [NADP, nicotinamide adenine dinucleotide phosphate], for which, in data set [2], the “Utilization as electron acceptor by N-AMDH” value was “hardly utilizes”.

`CCCCCCCCCCCCOS(=O)(=O)O` [SDS]: the remaining activity at 2000 µM in data set [1] (setting [6]) came to 18%. As for `[N-]=[N+]=[N-].[Na+]` [NaN3], the “Residual activity (%)” value in data set [1] (setting [6]) turned out to be 83%.

Regarding `O=C(CO)N[C@@H]1C(O)O[C@H](CO)[C@@H](O)[C@@H]1O` (stereo partly shown) [N-glycolylmannosamine], the “Action” value in data set [2] is on record as “acts upon N-glycolylmannosamine in the same manner as above”. Regarding `O=S(=O)([O-])[O-].[Cu+2]` [CuSO4], the “Residual activity (%)” value in data set [1] (setting [6]) came out at 79%. For the compound “N-acetylmannosamine dehydrogenase [N-AMDH]”, the “Temperature up to which activity is kept stable on heat treatment” value in data set [4] (FIG. 4, heat treated for minutes) was at most 45 °C. Further, in data set [4] (setting [7]), the “pH at which it is particularly instable when heat treated” value is at most 7 and the “pH at which it is stable when heat treated” value is listed as 8.5-9.5. The same compound displayed an Isoelectric point in data set [5] of 4.9. With `c1ccc(-c2ccccn2)nc1` [α,α'-Dipyridyl], the remaining activity at 2000 µM in data set [1] (setting [6]) worked out at 97%.

In the case of `O=C1C(Cl)=CC(=Nc2ccc(O)cc2)C=C1Cl` [2,6-dichlorophenol indophenol], the “Utilization as electron acceptor by N-AMDH” value in data set [2] is given as “hardly utilizes”. On to `[Cl-].[Na+]` [Sodium chloride], for which, in data set [3], the “Sodium chloride resistance: concentration above which there is no growth” value is reported as “above 2%”. For `CC(=O)N[C@H]1C(O)O[C@H](CO)[C@H](O)[C@@H]1O` (stereo partly shown) [N-acetylgalactosamine], the “Action” value in data set [2] is “hardly acts or does not act at all”.
